Patent US11090304B2 (Amgen Inc., priority 2018, dated 2021)
pIC50: −log10 of the molar value. Read-outs that look alike come from different tables or passages of the source.

What was measured:
[1] = biological target: GDP-bound KRAS protein (aa 1-169), containing both G12C and C118A amino acid substitutions (Homo sapiens, UniProt P01116, C118A/G12C); test: Coupled nucleotide exchange assay (SOS-mediated, AlphaScreen); assay type: biochemical; settings: 5 min compound pre-incubation; for pIC50: read-out: Coupled exchange IC50 (5 min)
Sequence of GDP-bound KRAS protein (aa 1-169), containing both G12C and C118A amino acid substitutions (P01116 1-169 isoform P01116-2 G12C/C118A): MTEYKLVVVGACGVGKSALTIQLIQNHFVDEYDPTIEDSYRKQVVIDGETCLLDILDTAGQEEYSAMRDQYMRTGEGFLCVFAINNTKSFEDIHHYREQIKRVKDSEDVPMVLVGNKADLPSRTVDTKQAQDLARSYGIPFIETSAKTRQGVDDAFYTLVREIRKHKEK

[2] = test system: Phosphorylation of ERK1/2 in MIA PaCa-2 cells; test: Phospho-ERK1/2 MSD assay in MIA PaCa-2 cells; assay type: cell-based; settings: read-out: p-ERK IC50 (2 h; MIA PaCa-2), 2 h compound treatment
Description: For compounds in Table 89, the following assay conditions were employed:
Phospho-ERK1/2 MSD Assay:
Sixteen hours prior to compound treatment, MIA PaCa-2 or A549 cells were seeded in 96-well cell culture plates at a density of 25,000 cells/well and incubated at 37° C., 5% CO2. A compound dose-response titration was diluted in growth media, added to appropriate wells of a cell culture plate, and then incubated at 37° C., 5% CO2 for 2 or 4 hours (see Table 15). Following compound treatment, cells were stimulated with 10 ng/mL EGF (Roche 11376454001) for 10 min, washed with ice-cold Dulbecco's phosphate-buffered saline, no Ca^2+ or Mg^2+ (ThermoFisher Scientific 14190144), and then lysed in RIPA buffer (50 mM Tris-HCl pH 7.5, 1% Igepal, 0.5% sodium deoxycholate, 150 mM NaCl, and 0.5% sodium dodecyl sulfate) containing protease inhibitors (Roche 4693132001) and phosphatase inhibitors (Roche 4906837001). Phosphorylation of ERK1/2 in compound-treated lysates was assayed using Phospho-ERK1/2 Whole Cell Lysate kits (Meso Scale Discovery K151DWD) according to the manufacturer's protocol. Assay plates were read on a Meso Scale Discovery Sector Imager 6000, and data were analyzed using a 4-parameter logistic model to calculate IC50 values.

SMILES	Coupled exchange IC50 (5 min) [1]	pIC50 ([2]; Homo sapiens, MIA PaCa-2, 2 h)	pIC50 [1]	pIC50 [2]
C=CC(=O)N1CCN(c2nc(=O)n(-c3c(C)ccnc3C(C)C)c3nc(-c4cc(Cl)ccc4F)c(Cl)cc23)[C@@H](C)C1 (atropisomer, axis not shown; (M)) [Example 73-4, (M)-6-chloro-7-(5-chloro-2-fluorophenyl)-1-(4-methyl-2-(2-propanyl)-3-pyridinyl)-4-((2S)-2-methyl-4-(2-propenoyl)-1-piperazinyl)pyrido[2,3-d]pyrimidin-2(1H)-one]	0.047 | nda μM	7.21	–	–
C=CC(=O)N1CCN(c2nc(=O)n(-c3c(C)ccnc3C(C)C)c3nc(-c4cc(C#N)ccc4F)c(Cl)cc23)[C@@H](C)C1 (atropisomer, axis not shown; (M)) [Example 73-5, (M)-3-(6-chloro-1-(4-methyl-2-(2-propanyl)-3-pyridinyl)-4-((2S)-2-methyl-4-(2-propenoyl)-1-piperazinyl)-2-oxo-1,2-dihydropyrido[2,3-d]pyrimidin-7-yl)-4-fluorobenzonitrile]	0.184 | nda μM	6.64	–	–
C=CC(=O)N1CCN(c2nc(=O)n(-c3c(C)ccnc3C(C)C)c3nc(-c4cc(OC)ccc4F)c(Cl)cc23)[C@@H](C)C1 (atropisomer, axis not shown; (M)) [Example 73-6, (M)-6-chloro-7-(2-fluoro-5-methoxyphenyl)-1-(4-methyl-2-(2-propanyl)-3-pyridinyl)-4-((2S)-2-methyl-4-(2-propenoyl)-1-piperazinyl)pyrido[2,3-d]pyrimidin-2(1H)-one]	0.059 | nda μM	6.98	–	–
C=CC(=O)N1CCN(c2nc(=O)n(-c3c(C)ccnc3C(C)C)c3nc(-c4cc(OC(F)(F)F)ccc4F)c(Cl)cc23)[C@@H](C)C1 (atropisomer, axis not shown; (M)) [Example 73-7, (M)-6-chloro-7-(2-fluoro-5-(trifluoromethoxy)phenyl)-1-(4-methyl-2-(2-propanyl)-3-pyridinyl)-4-((2S)-2-methyl-4-(2-propenoyl)-1-piperazinyl)pyrido[2,3-d]pyrimidin-2(1H)-one]	0.241 | nda μM	6.43	–	–
C=CC(=O)N1CCN(c2nc(=O)n(-c3c(C)ccnc3C(C)C)c3nc(-c4cc(C(F)(F)F)ccc4F)c(Cl)cc23)[C@@H](C)C1 (atropisomer, axis not shown; (M)) [Example 73-8, (M)-6-chloro-7-(2-fluoro-5-(trifluoromethyl)phenyl)-1-(4-methyl-2-(2-propanyl)-3-pyridinyl)-4-((2S)-2-methyl-4-(2-propenoyl)-1-piperazinyl)pyrido[2,3-d]pyrimidin-2(1H)-one]	0.236 | nda μM	6.19	–	–
C=CC(=O)N1CCN(c2nc(=O)n(-c3c(C)ccnc3C(C)C)c3nc(-c4cc(C5CC5)ccc4F)c(Cl)cc23)[C@@H](C)C1 (atropisomer, axis not shown; (M)) [Example 73-9, (M)-6-chloro-7-(5-cyclopropyl-2-fluorophenyl)-1-(4-methyl-2-(2-propanyl)-3-pyridinyl)-4-((2S)-2-methyl-4-(2-propenoyl)-1-piperazinyl)pyrido[2,3-d]pyrimidin-2(1H)-one]	0.06 | nda μM	6.55	–	–
C=CC(=O)N1CCN(c2nc(=O)n(-c3c(C)ccnc3C(C)C)c3nc(-c4cc(C(=O)NC5CC5)ccc4F)c(Cl)cc23)[C@@H](C)C1 (atropisomer, axis not shown; (M)) [Example 73-10, (M)-3-(6-chloro-1-(4-methyl-2-(2-propanyl)-3-pyridinyl)-4-((2S)-2-methyl-4-(2-propenoyl)-1-piperazinyl)-2-oxo-1,2-dihydropyrido[2,3-d]pyrimidin-7-yl)-N-cyclopropyl-4-fluorobenzamide]	0.385 | nda μM	6.26	–	–
C=CC(=O)N1C[C@@H](C)N(c2nc(=O)n(-c3c(C)ccnc3C(C)C)c3nc(-c4c(N)cccc4F)c(Cl)cc23)[C@@H](C)C1 (atropisomer, axis not shown; (M)) [Example 73-12, (M)-7-(2-amino-6-fluorophenyl)-6-chloro-4-(cis-2,6-dimethyl-4-(2-propenoyl)-1-piperazinyl)-1-(4-methyl-2-(2-propanyl)-3-pyridinyl)pyrido[2,3-d]pyrimidin-2(1H)-one]	0.01 | nda μM	8.00	–	–
C=CC(=O)N1C[C@@H](C)N(c2nc(=O)n(-c3c(C)ccnc3C(C)C)c3nc(-c4c(O)cccc4F)c(Cl)cc23)[C@@H](C)C1 (atropisomer, axis not shown; (M)) [Example 73-13, (M)-6-chloro-4-(cis-2,6-dimethyl-4-(2-propenoyl)-1-piperazinyl)-7-(2-fluoro-6-hydroxyphenyl)-1-(4-methyl-2-(2-propanyl)-3-pyridinyl)pyrido[2,3-d]pyrimidin-2(1H)-one]	0.023 | nda μM	7.77	–	–
C=CC(=O)N1C[C@H](C)N(c2nc(=O)n(-c3c(C)ccnc3C(C)C)c3nc(-c4c(N)cccc4F)c(Cl)cc23)[C@@H](C)C1 (atropisomer, axis not shown; (M)) [Example 73-15, (M)-7-(2-amino-6-fluorophenyl)-6-chloro-4-((2S,6S)-2,6-dimethyl-4-(2-propenoyl)-1-piperazinyl)-1-(4-methyl-2-(2-propanyl)-3-pyridinyl)pyrido[2,3-d]pyrimidin-2(1H)-one]	0.015 | nda μM	8.40	–	–
C=CC(=O)N1C[C@H](C)N(c2nc(=O)n(-c3c(C)ccnc3C(C)C)c3nc(-c4c(O)cccc4F)c(Cl)cc23)[C@@H](C)C1 (atropisomer, axis not shown; (M)) [Example 73-16, (M)-6-chloro-4-((2S,6S)-2,6-dimethyl-4-(2-propenoyl)-1-piperazinyl)-7-(2-fluoro-6-hydroxyphenyl)-1-(4-methyl-2-(2-propanyl)-3-pyridinyl)pyrido[2,3-d]pyrimidin-2(1H)-one]	0.019 | nda μM	8.15	–	–
C=CC(=O)N1C[C@@H](C)N(c2nc(=O)n(-c3c(C)ccnc3C(C)C)c3nc(-c4c(O)cccc4F)c(F)cc23)[C@@H](C)C1 (atropisomer, axis not shown; (M)) [Example 75-1, (M)-4-(cis-2,6-Dimethyl-4-(2-propenoyl)-1-piperazinyl)-6-fluoro-7-(2-fluoro-6-hydroxyphenyl)-1-(4-methyl-2-(2-propanyl)-3-pyridinyl)pyrido[2,3-d]pyrimidin-2(1H)-one]	–	–	7.32	7.31
C=CC(=O)N1CCN(c2nc(=O)n(-c3c(C)ccnc3C(C)C)c3nc(-c4ccccc4F)c(Cl)cc23)C[C@H]1C (atropisomer, axis not shown; (M)) [Example 78-1, (M)-6-Chloro-7-(2-fluorophenyl)-1-(4-methyl-2-(2-propanyl)-3-pyridinyl)-4-((3R)-3-methyl-4-(2-propenoyl)-1-piperazinyl)pyrido[2,3-d]pyrimidin-2(1H)-one]	–	–	6.67	7.31
C=CC(=O)N1CCN(c2nc(=O)n(-c3c(C)ccnc3C(C)C)c3nc(-c4c(C)ccc5[nH]ncc45)c(Cl)cc23)[C@@H](C)C1 (atropisomer, axis not shown; (M)) [Example 82-1, (M)-6-Chloro-7-(5-methyl-1H-indazol-4-yl)-1-(4-methyl-2-(2-propanyl)-3-pyridinyl)-4-((2S)-2-methyl-4-(2-propenoyl)-1-piperazinyl)pyrido[2,3-d]pyrimidin-2(1H)-one]	–	–	7.11	6.97
C=CC(=O)N1CCN(c2nc(=O)n(-c3c(C)ccnc3C(C)C)c3nc(-c4c(O)cccc4F)c(Cl)cc23)C[C@H]1C (atropisomer, axis not shown; (M)) [Example 129, (M)-6-Chloro-7-(2-fluoro-6-hydroxyphenyl)-1-(4-methyl-2-(2-propanyl)-3-pyridinyl)-4-((3R)-3-methyl-4-(2-propenoyl)-1-piperazinyl)pyrido[2,3-d]pyrimidin-2(1H)-one]	0.045 | nda μM	7.02	–	–
Cc1ccnc(C(C)C)c1-n1c(=O)nc(N2CCN(C(=O)/C=C/CN(C)C)C[C@@H]2C)c2cc(F)c(-c3c(O)cccc3F)nc21 (atropisomer, axis not shown; (M)) [Example 145, (M)-4-((2S)-4-((2E)-4-(Dimethylamino)-2-butenoyl)-2-methyl-piperazinyl)-6-fluoro-7-(2-fluoro-6-hydroxyphenyl)-1-(4-methyl-2-(2-propanyl)-3-pyridinyl)pyrido[2,3-d]pyrimidin-2(1H)-one]	–	–	6.02	5.41
C=CC(=O)N1CCN(c2nc(=O)n(-c3c(C)cc[n+]([O-])c3C(C)C)c3nc(-c4ccccc4F)c(Cl)cc23)C(C)C1 (atropisomer, axis not shown; (M)) [Example 151, (M)-6-Chloro-7-(2-fluorophenyl)-1-(4-methyl-1-oxido-2-(2-propanyl)-3-pyridinyl)-4-((2S)-2-methyl-4-(2-propenoyl)-1-piperazinyl)pyrido[2,3-d]pyrimidin-2(1H)-one]	0.065 | nda μM	6.63	–	–
